Reference: US11123341B2, “Butyrylcholinesterase inhibitors for treatment of opioid use disorder” (priority 2019, dated 2021)

Assays:
[1] = test system: heroin-induced lethality; test: Protection of mice against acute toxicity (lethality) of a lethal dose of heroin; format: in vivo; details: 10 min before heroin 25 mg/kg IV, n=6
Experimental: (§1) All mice were allowed ad libitum access to food and water and maintained on a 12 h light/12 h dark cycle, with the lights on at 8:00 a.m. at a room temperature of 21-22° C. Experiments were performed in a same colony room in accordance with the Guide for the Care and Use of Laboratory Animals as adopted and promulgated by the National Institutes of Health. The animal protocol was approved by the IACUC (Institutional Animal Care and Use Committee) at the University of Kentucky.
Heroin-induced acute toxicity was characterized in this study by the occurrence of death. […] Following the heroin administration, mice were immediately placed in containers for observation. The presence or absence of death was recorded for 6 hours following heroin administration.
(§2) Heroin-induced acute toxicity was characterized by the lethality (occurrence of death). For the protection experiments, a single dose of ethopropazine was administrated (IV) prior to administration of a lethal dose (LD100) of heroin (e.g. 25 mg/kg, IV). At 10 min after IV administration of ethopropazine or saline (negative control), the mice were given a lethal dose (LD100) of heroin. The protection experiments were performed under various dose conditions (n=6 for each scenario).

[2] = biological target: BChE (Homo sapiens, UniProt P06276); details: read-out: IC50 for BChE; cited from earlier work
BChE, sequence (P06276 29-602): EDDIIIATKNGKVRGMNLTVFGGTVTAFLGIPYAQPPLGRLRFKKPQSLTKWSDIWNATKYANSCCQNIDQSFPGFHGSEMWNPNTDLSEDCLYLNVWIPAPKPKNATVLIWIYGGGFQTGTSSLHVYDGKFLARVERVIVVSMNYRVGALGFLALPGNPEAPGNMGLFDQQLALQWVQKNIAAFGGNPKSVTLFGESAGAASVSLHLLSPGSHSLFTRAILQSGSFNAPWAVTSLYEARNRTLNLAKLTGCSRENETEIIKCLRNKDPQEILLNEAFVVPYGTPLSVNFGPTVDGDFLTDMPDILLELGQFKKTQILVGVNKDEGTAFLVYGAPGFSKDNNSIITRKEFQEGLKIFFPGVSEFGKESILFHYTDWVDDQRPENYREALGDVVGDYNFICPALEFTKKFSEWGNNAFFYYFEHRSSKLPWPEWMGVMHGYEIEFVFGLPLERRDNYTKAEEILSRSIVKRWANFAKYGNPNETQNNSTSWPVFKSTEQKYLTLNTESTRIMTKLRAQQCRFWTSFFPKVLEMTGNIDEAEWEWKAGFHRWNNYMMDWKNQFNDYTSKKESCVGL

[3] = test system: heroin-induced hyperactivity; test: Locomotor activity test of heroin-induced hyperactivity; format: in vivo, mice; details: 10 mg/kg IV, 10 min prior to heroin 2.5 mg/kg IP; n=8
Experimental: as §1

[4] = 1 mg/kg IV
Experimental: as §2

**Q.** Which “protection against heroin-induced lethality” value (“protection” below) ([1]; ethopropazine 1 mg/kg IV) does the source give for `CCN(CC)C(C)CN1c2ccccc2Sc2ccccc21` (stereo not drawn) [ethopropazine] here?
**A.** partial protection

**Q.** And the “protection” value ([1]; ethopropazine 10 mg/kg IV)?
**A.** protected all mice

**Q.** And the IC50 [2]?
**A.** 210 to 300 nM

**Q.** And the “effect on heroin-induced hyperactivity (total distance traveled)” value [3]?
**A.** significantly attenuated heroin-induced hyperactivity

**Q.** Which “adverse effect observed in mice” value [4] does the source give for `O=C1CC[C@@]2(O)[C@H]3Cc4ccc(O)c5c4[C@@]2(CCN3CC2CC2)[C@H]1O5` [naltrexone] here?
**A.** not able to stand and could hardly move at all

**Q.** And the “protection” value ([1]; naltrexone 0.3 mg/kg IV)?
**A.** partial protection
